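Following 48 hours of exposure in 96-well plates, responses at five concentrations were used to interpolate endpoints linearly. Abbreviation: GI50, concentration required for 50% inhibition of growth.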 Calls of active or inactive are those of the source. Rule as the data show it: active = GI50 up to about 1.1 µM and inactive = higher.
How the values were obtained:
Assay in all cases: NCI tumour cell line growth inhibition, 48 h
[1] = system: Hs-578T
[2] = system: MDA-MB-231
[3] = system: MDA-N
[4] = system: T47D
[5] = system: BT-549
[6] = system: HOP-18
[7] = system: XF498
[8] = system: RXF 631
[9] = system: 786-0

Measured: GI50

CC(NC(=O)C(NC(=O)CNC(=O)OC(C)(C)C)C(C)C)C(=O)Oc1c(Cl)c(Cl)c(Cl)c(Cl)c1Cl (stereo unspecified)
inactive: [1] 20.1 µM | [2] 22.6 µM | [3] 25.1 µM | [4] 23.1 µM | [5] 23.8 µM

CC1(CO)C(O)CCC2(C)C1C(O)CC1CC3CC12CCC3(O)CO (stereo unspecified)
inactive: [6] > 225 µM | [7] 29.6 µM

C=CCN1C(=O)/C(=C/c2ccccc2)N=C1SC1OC(COC(=O)c2ccccc2)C(OC(=O)c2ccccc2)C1OC(=O)c1ccccc1 (stereo unspecified)
inactive: [2] 91.2 µM | [5] > 100 µM

Cc1cc(OCC(O)CO)ccc1Cl (stereo unspecified)
inactive: [8] > 100 µM | [6] > 100 µM

CC1=CC2=C(C=O)C(=O)[C@](C)(O)[C@@H](O)C2=CO1
inactive: [6] > 54.5 µM | [7] > 54.3 µM

O=[N+]([O-])c1ccc(CNC2=NNS(=O)(=O)c3ccccc32)cc1
inactive: [8] > 100 µM | [9] > 100 µM | [7] > 100 µM

CC/C(CC(=O)CCC(=O)Nc1ccc(C)c(C)c1)=N\NC(=O)c1cc2ccccc2cc1O
inactive: [8] 69.5 µM | [6] 15.2 µM

NC(CSC(=O)c1ccccc1)C(=O)O (stereo unspecified)
inactive: [1] > 100 µM | [2] > 100 µM | [3] > 100 µM | [9] > 100 µM | [5] > 100 µM

CC#CC#C/C=C1\C=CC2(OC=CC2OC(C)=O)O1 (stereo unspecified)
inactive: [8] 14.5 µM | [1] 27.4 µM | [2] 17.8 µM | [3] 15.8 µM | [4] 24.1 µM | [7] 21.3 µM | [5] 34.7 µM

O=C1C=C2SC3C[C@@]24CC1(O)[N+]1=c2c4c(c(O)c4c2=C(C=N4)CC1)N3
inactive: [6] 2.43 µM | [7] 1.85 µM

COc1ccc(-c2cc(O)c3cc(C)cnc3n2)cc1
inactive: [1] 4.66 µM | [2] 16.2 µM | [4] 5.38 µM | [5] 2 µM

Source: ChEMBL document CHEMBL1201862, “PubChem BioAssay data set” (2004)
